US11524975B2, “Amphiphilic compound having dendronic hydrophobic group and application thereof” (Industry-University Cooperation Foundation Hanyang …, priority 2017, dated 2022)
Where two headings read alike, the source gives them in different places.

Key:
LHI-RC complex = tested on: T1, LHI-RC complex; test: Structural stability of LHI-RC complex in detergent, UV-Vis absorbance at 875 nm; design: species or system R. capsulatus; details: 25° C., FIG. 5
T1 construct: His tag (implied only by Ni-NTA / HisSpinTrap purification); made in house; host or cells: R. capsulatus U43 [pUHTM86Bgl] membranes
Protocol: An experiment was conducted to evaluate the stabilization ability of DTMs on LHI-RC. The photosynthetic super assembly consists of a complex of light-harvesting complex I (LHI) and a reaction center (RC). The structural stability of LHI-RC was measured by a method of monitoring the structure of a protein for 20 days using UV-Vis spectroscopy. LHI-RC protein stability according to the concentration of an amphiphilic molecule was investigated using all DTMs of the present invention, and conventional amphiphilic molecules, such as DDM and OG, and the concentrations of an amphiphilic molecule used here were CMC+ 0.04 wt % (FIG. 5a) and CMC+ 0.2 wt % (FIG. 5b).
Specifically, LHI-RC stability was measured using a method disclosed in the paper published in 2008 by the inventors (P. S. Chae et al., ChemBioChem 2008, 9, 1706-1709.). […] A 10 mL aliquot of the solution of the frozen R. capsulatus membrane was homogenized using a glass homogenizer, and incubated with gentle stirring at 32° C. for 30 minutes. The homogenized membrane was treated with 1.0 wt % DDM for 30 minutes at 32° C. […] Protein stability was measured at regular intervals during the incubation by measuring UV-Vis spectra of the samples in the range of 650 to 950 nm. Protein integrity was evaluated by monitoring absorbance (A875) at 875 nm.

[1] = biological target: T2, MelBSt (melibiose permease) (Salmonella typhimurium, UniProt P30878); details: 1.5 wt % detergent, 90 minutes
T2 construct: made in house; host or cells: E. coli DW2 (ΔmelB, ΔlacZY), plasmid pK95ΔAHB/WT MelBSt/CH10
Protocol: Specifically, Salmonella typhimurium MelBSt (melibiose permease) having a 10-His tag at the C-terminus was expressed in E. coli DW2 cells (ΔmelB and ΔlacZY) using a pK95ΔAHB/WT MelBSt/CH10 plasmid. Cell growth and membrane preparation were carried out according to the methods disclosed in the paper written by A. S. Ethayathulla et al. (Nat. Commun. 2014, 5, 3009). A protein assay was performed using a Micro BCA kit (Thermo Scientific, Rockford, Ill.). MelBSt stability in DTMs or DDM was evaluated using the protocol disclosed in Nat. Methods 2010, 7, 1003-1008, written by P. S. Chae et al. A MelBSt-containing membrane sample (the final protein concentration was 10 mg/mL) was incubated in a solubilization buffer containing 1.5% (w/v) DDM or DTM (20 mM sodium phosphate, pH 7.5, 200 mM NaCl, 10% glycerol and 20 mM melibiose) at four different temperatures (0, 45, 55 and 65° C.) for 90 minutes. To remove an insoluble material, ultracentrifugation was performed using a Beckman Optima™ MAX ultracentrifuge equipped with a TLA-100 rotor at 355,590 g and 4° C. for 45 minutes. […] The loaded samples were analyzed by SDS-15% PAGE, and then visualized by immunoblotting with a Penta-His-HRP antibody (Qiagen, Germantown, Md.).

MelBSt and MelBEc = test: Galactoside-binding Trp→D2G FRET assay of detergent-solubilized MelB homologs; assay type: biochemical; details: 1.0% detergent, 60 minutes at 23° C., FIG. 8c
Protocol: In addition, RSO vesicles were prepared to be used for Trp→D^2G FRET assay. The RSO membrane vesicles were prepared by osmotic lysis from E. coli DW2 cells containing MelBSt or MelBEc. The RSO membrane vesicles mixed in a buffer (pH 7.5) containing 100 mM KPi and 100 mM NaCl at a protein concentration of 1 mg/ml were treated with 1.0% individual compounds (DDM, DTM-A5 and DTM-A6) for 60 minutes at 23° C., and ultracentrifuged using a TLA 120.2 rotor at 300,000 g or more for 45 minutes at 4° C. Supernatants were applied to a FRET (Trp→D^2G) experiment using an Amico-Bowman Series 2 (AB2) spectrofluorometer. The 2′-(N-dansyl)aminoalkyl-1-thio-β-D-galactopyranoside (D^2G, dansyl-galactoside) was obtained from Drs. Gerard Leblanc and H. Ronald Kaback. D^2G FRET signals of MelBSt and MelBEc were collected at 490 and 465 nm, respectively, upon excitation of Trp residues at 290 nm. 10 μM D^2G and excess melibiose or an equal amount of water (control) was added into an MelB solution at the time points of 1 minute and 2 minutes, respectively.

β2AR-Gs complex [2] = biological target: T3, β2AR-Gs complex (Homo sapiens, UniProt P07550); details: DDM-purified complex, previous study; cited from earlier work
T3 construct: made in house; host or cells: β2AR: Sf9 insect cells

[3] = Critical micelle concentration by hydrophobic fluorescence staining with diphenylhexatriene (DPH); assay type: physicochemical
Protocol: A method of measuring CMC is not particularly limited, and may be a method widely known in the art, for example, fluorescent staining using diphenylhexatriene (DPH).
(§1) To identify the properties of DTMs synthesized according to the synthetic methods of Examples 1 and 2, the molecular weights (M.W.) and critical micellar concentrations (CMCs) of DTMs, and hydrodynamic radii (Rh) of formed micelles were measured.
(§2) Specifically, the CMCs were measured using hydrophobic fluorescence staining and diphenylhexatriene (DPH), and the hydrodynamic radii (Rh) of the micelles formed by each formulation were measured by dynamic light scattering (DLS).

[4] = Hydrodynamic radius of micelles by dynamic light scattering (DLS); assay type: physicochemical; details: 0.5 wt % detergent concentration
Protocol: A method of measuring the radius of a micelle is not particularly limited, but may be a method well known in the art, for example, dynamic light scattering (DLS).
as §1, §2

β2AR = biological target: T4, β2AR (Homo sapiens, UniProt P07550); test: β2AR stability in detergent, [3H]-dihydroalprenolol (DHA) binding; assay type: biochemical; details: CMC+0.2 wt %, 4 days at room temperature, FIG. 9a
T4 construct: made in house; host or cells: Sf9 insect cells, baculovirus
Protocol: A receptor was expressed in Sf9 insect cells infected with a baculovirus and solubilized in 1% DDM. The DDM-solubilized receptor was purified by alprenolol-sepharose in the presence of 0.01% cholesteryl succinate (CHS). β2AR purified by DDM was diluted with a buffer containing DDM or DTM (DTM-A6, DTM-A7 or DTM-E7) to reach the final concentration of CMC+0.2 wt %. β2AR solubilized in each compound was stored for 4 days at room temperature, and the ligand binding ability of the receptor was measured at regular intervals by incubating the receptor with 10 nM radioactive [^3H]-dihydroalprenolol (DHA) for 30 minutes at room temperature. The mixture was loaded into a G-50 column, and a supernatant was collected using a certain amount of binding buffer (supplemented with 20 mM HEPES pH 7.5, 100 mM NaCl, 0.5 mg/ml BSA). In addition, a 15 ml scintillation fluid was added. Receptor-binding [^3H]-DHA was measured using a scintillation counter (Beckman).

β2AR-Gs complex [5] = biological target: T3, β2AR-Gs complex; details: DDM-purified complex, previous study; cited from earlier work; remark: listed apart in the source
β2AR-Gs complex [6] = biological target: T3, β2AR-Gs complex; test: Stability of β2AR-Gs complex by analytical gel filtration (SEC); details: complex purified in detergent, compound-free running buffer, 3 and 15-day incubation, FIG. 9b
Protocol: 100 μM β2AR solubilized in 0.1% DDM was mixed with 120 μM Gs heterotrimer for 30 minutes at room temperature. 0.5 unit of apyrase (NEB) and 2 mM MgCl2 was added to facilitate complex formation, followed by further incubation for one hour. Subsequently, 1% DTM-A6 was added such that the final concentration reached 0.8%, and the sample was further incubated for 30 minutes to change DDM to DTM-A6. The protein solution was loaded into a M1 Flag column, washed with a series of buffers with different molar ratios of 0.1% DDM buffer to 0.5% DTM-A6 buffer to completely change DDM to DTM-A6, and the protein was finally eluted with 0.05% (70×CMC) DTM-A6 buffer. Preparative gel filtration was performed to purify the β2AR-Gs complex with a running buffer (20 mM HEPES pH 7.5, 100 mM NaCl, 0.005% DTM-A6, 1 mM BI, […]). To measure the stability of the β2AR-Gs complex in DTM-A6, analytical gel filtrations were performed using the running buffer as above, but after 3 and 15-day incubation, performed without DTM-A6 (compound-free condition).

β2AR-Gs complex [7] = biological target: T3, β2AR-Gs complex; test: Negative stain EM analysis of β2AR-Gs complex; details: FIG. 11
Protocol: A β2AR-Gs protein complex was prepared for electron microscopy using a conventional negative staining protocol, and imaged at room temperature using a Tecnai T12 electron microscope operated at 120 kV according to a low-dose procedure. Images were recorded at a magnification of 71,138× and a defocus value of approximately ˜1.1 μm on a Gatan US4000 CCD camera. All images were binned (2×2 pixels) to obtain a pixel size of 4.16 Å at a specimen level. Particles were manually […] using e2boxer (part of the EMAN2 software suite). 2D reference-free alignment and classification of particle projections were performed using ISAC. 124,279 projections of β2AR-Gs were subjected to ISAC producing 131 classes consistent in two-way matching and 10,000 particle projections.

[8] = DPH fluorescence staining, aqueous solution

Row | SMILES | LHI-RC protein stability when concentration increases from CMC+0.04 wt % to CMC+0.2 wt % (LHI-RC complex) | MelBst solubilization from the membrane ([1]; 0° C. and 45° C.) | MelBst protein extraction efficiency ([1]; 0° C.) | MelBst solubilization from the membrane ([1]; 65° C.) | maintenance of MelB protein function (galactoside binding) of two homologs (MelBSt and MelBEc) | integrity of β2AR-Gs complex (β2AR-Gs complex [2]) | CMC [3] [µM] | CMC [3, 8] [µM] | CMC (wt %) [3, 8] [wt %] | R2 (nm), detergent hydrodynamic radius [4] [nm] | long-term β2AR receptor activity (β2AR) | homogeneity of β2AR-Gs complex particles (negative stain EM) (β2AR-Gs complex [5]) | integrity of β2AR-Gs complex (SEC) (β2AR-Gs complex [6]) | MelBst solubilization from the membrane ([1]; 55° C.) | homogeneity of β2AR-Gs complex particles (negative stain EM) (β2AR-Gs complex [7])
1 | CCCCCCCCO[C@@H]1O[C@H](CO)[C@@H](O)[C@H](O)[C@H]1O [OG, n-octyl-β-D-glucopyranoside] | protein stability decreases |  |  |  |  |  |  |  |  |  |  |  |  |  | 
2 | CCCCCCCCCCCCO[C@@H]1O[C@H](CO)[C@@H](O[C@H]2O[C@H](CO)[C@@H](O)[C@H](O)[C@H]2O)[C@H](O)[C@H]1O [DDM, n-dodecyl-β-D-maltopyranoside] | protein stability decreases | stably solubilized | higher protein extraction efficiency than DTMs | did not occur | only one of the two homologs | significant dissociation between the receptor and Gs protein even after 2 day-incubation | 170 | 170 | 0.0087 | 3.4 ± 0.0 | rapid loss of activity over time | aggregation of particles |  |  | 
3 | CCCCCCC(CCCCCC)COCC(COCC(CCCCCC)CCCCCC)COCC(CO[C@@H]1OC(CO)[C@@H](O[C@H]2OC(CO)[C@@H](O)C(O)C2O)C(O)C1O)(CO[C@@H]1OC(CO)[C@@H](O[C@H]2OC(CO)[C@@H](O)C(O)C2O)C(O)C1O)CO[C@@H]1OC(CO)[C@H](O[C@H]2OC(CO)[C@@H](O)C(O)C2O)C(O)C1O (stereo partly drawn) [DTM-A6] |  |  |  |  | maintain protein function |  |  | ~10 | ~0.0015 | 3.7 ± 0.0 | consistently maintained |  | continuously maintains its integrity as a complex for 15 days | most effectively solubilized | highly homogeneous
